In brackets after ≈: the same amount, converted by molar mass.
Assays:
Type in all cases: functional
Candida albicans = assay: Antifungal activity against Candida albicans after 48 hrs by MTT colorimetric method
Bacillus subtilis = assay: Antibacterial activity against Bacillus subtilis after 24 hrs by MTT colorimetric method
Pseudomonas fluorescens = assay: Antibacterial activity against Pseudomonas fluorescens after 24 hrs by MTT colorimetric method
Escherichia coli = assay: Antibacterial activity against Escherichia coli after 24 hrs by MTT colorimetric method
Staphylococcus aureus = assay: Antibacterial activity against Staphylococcus aureus after 24 hrs by MTT colorimetric method
Aspergillus niger = assay: Antifungal activity against Aspergillus niger after 48 hrs by MTT colorimetric method
Trichophyton rubrum = assay: Antifungal activity against Trichophyton rubrum after 48 hrs by MTT colorimetric method

MIC (Candida albicans) [µg/mL] | MIC (Bacillus subtilis) [µg/mL] | MIC (Pseudomonas fluorescens) [µg/mL] | MIC (Escherichia coli) [µg/mL] | MIC (Staphylococcus aureus) [µg/mL] | MIC (Aspergillus niger) [µg/mL] | MIC (Trichophyton rubrum) [µg/mL] | SMILES
> 50 | > 50 | > 50 | > 50 | > 50 | > 50 | > 50 | Oc1ccc(Cl)cc1/C=N/CCCCCC/N=C/c1cc(Cl)ccc1O
> 50 | > 50 | > 50 | > 50 | > 50 | > 50 | > 50 | Oc1ccc(Cl)cc1/C=N/CC1CCCC(C/N=C/c2cc(Cl)ccc2O)C1 (stereo unspecified)
> 50 | > 50 | 32.5 (≈ 85.5 µM) | > 50 | > 50 | > 50 | > 50 | Oc1ccc(Cl)cc1/C=N/CCNCC/N=C/c1cc(Cl)ccc1O
> 50 | 48.5 (≈ 176 µM) | 3.1 (≈ 11.2 µM) | > 50 | 1.8 (≈ 6.53 µM) | > 50 | > 50 | Oc1ccc(CC/N=C/c2cc(Cl)ccc2O)cc1
> 50 | > 50 | 4.5 (≈ 12.8 µM) | 5 (≈ 14.2 µM) | > 50 | > 50 | > 50 | Oc1ccc(Cl)cc1/C=N/CCC/N=C/c1cc(Cl)ccc1O
> 50 | > 50 | > 50 | > 50 | 22.5 (≈ 84 µM) | > 50 | > 50 | Oc1ccc(Cl)cc1/C=N/CCN1CCNCC1
> 50 | > 50 | 2.5 (≈ 9.3 µM) | 3.5 (≈ 13 µM) | > 50 | > 50 | > 50 | Oc1ccc(Cl)cc1/C=N/CCN1CCOCC1
> 50 | > 50 | > 50 | > 50 | > 50 | > 50 | > 50 | CC1(/N=C/c2cc(Cl)ccc2O)CCC(C(C)(C)/N=C/c2cc(Cl)ccc2O)CC1 (stereo unspecified)
> 50 | > 50 | > 50 | > 50 | > 50 | > 50 | > 50 | Oc1ccc(Cl)cc1/C=N/C1CCN(Cc2ccccc2)CC1
> 50 | > 50 | 2.8 (≈ 8.3 µM) | > 50 | > 50 | > 50 | > 50 | Oc1ccc(Cl)cc1/C=N/CC/N=C/c1cc(Cl)ccc1O
> 50 | > 50 | > 50 | > 50 | > 50 | > 50 | > 50 | Oc1ccc(Cl)cc1/C=N/CC1CCCCC1
12.5 (≈ 62.6 µM) | > 50 | > 50 | > 50 | 15.5 (≈ 77.6 µM) | > 50 | > 50 | OCC/N=C/c1cc(Cl)ccc1O
> 50 | > 50 | > 50 | > 50 | > 50 | > 50 | > 50 | CN(C)CCC/N=C/c1cc(Cl)ccc1O
> 50 | > 50 | > 50 | > 50 | > 50 | > 50 | > 50 | CN(CCC/N=C/c1cc(Cl)ccc1O)CCC/N=C/c1cc(Cl)ccc1O
> 50 | > 50 | > 50 | > 50 | 18.5 (≈ 66.9 µM) | > 50 | > 50 | O=[N+]([O-])c1ccc(/N=C/c2cc(Cl)ccc2O)cc1
> 50 | > 50 | 3.2 (≈ 13 µM) | 3.1 (≈ 12.6 µM) | > 50 | > 50 | > 50 | Oc1ccc(Cl)cc1/C=N/Cc1ccccc1
> 50 | > 50 | 12.5 (≈ 50.7 µM) | > 50 | 19.5 (≈ 79 µM) | > 50 | > 50 | Oc1ccc(Cl)cc1/C=N/Cc1cccnc1
> 50 | 45.2 (≈ 171 µM) | 2.8 (≈ 10.6 µM) | 1.6 (≈ 6.07 µM) | 3.4 (≈ 12.9 µM) | 47.5 (≈ 180 µM) | > 50 | Oc1ccc(Cl)cc1/C=N/Cc1ccc(F)cc1
> 50 | > 50 | 12.5 (≈ 52.6 µM) | 48.6 (≈ 204 µM) | 25 (≈ 105 µM) | > 50 | > 50 | Oc1ccc(Cl)cc1/C=N/C1CCCCC1
> 50 | 49.8 (≈ 211 µM) | 5.2 (≈ 22.1 µM) | 5.7 (≈ 24.2 µM) | > 50 | > 50 | > 50 | Oc1ccc(Cl)cc1/C=N/Cc1ccco1
> 50 | > 50 | > 50 | > 50 | 18.5 (≈ 65.4 µM) | > 50 | > 50 | Oc1ccc(Cl)cc1/C=N/CCCN1CCOCC1
> 50 | > 50 | > 50 | > 50 | > 50 | > 50 | > 50 | CCOC(=O)N1CCC(/N=C/c2cc(Cl)ccc2O)CC1
> 50 | 1.8 (≈ 5.12 µM) | 3.6 (≈ 10.2 µM) | 4.9 (≈ 14 µM) | > 50 | > 50 | > 50 | CC(C/N=C/c1cc(Cl)ccc1O)/N=C/c1cc(Cl)ccc1O (stereo unspecified)
> 50 | > 50 | 40.5 (≈ 137 µM) | > 50 | > 50 | > 50 | > 50 | CC1(C)CC(/N=C/c2cc(Cl)ccc2O)CC(C)(C)N1
> 50 | > 50 | 3.4 (≈ 15.2 µM) | 4.1 (≈ 18.3 µM) | > 50 | > 50 | > 50 | Oc1ccc(Cl)cc1/C=N/C1CCCC1
> 50 | > 50 | > 50 | > 50 | > 50 | > 50 | > 50 | CCN(CC)CCC/N=C/c1cc(Cl)ccc1O

SMILES | MIC (Candida albicans) [µg/mL] | MIC (Bacillus subtilis) [µg/mL] | MIC (Pseudomonas fluorescens) [µg/mL] | MIC (Escherichia coli) [µg/mL] | MIC (Staphylococcus aureus) [µg/mL] | MIC (Aspergillus niger) [µg/mL] | MIC (Trichophyton rubrum) [µg/mL]
CC(=O)N1CCN(c2ccc(OC[C@H]3CO[C@](Cn4ccnc4)(c4ccc(Cl)cc4Cl)O3)cc2)CC1 [KETOCONAZOLE] | 3.9 (≈ 7.34 µM) | > 50 | > 50 | > 50 | > 50 | 7.8 (≈ 14.7 µM) | 3.9 (≈ 7.34 µM)
NC[C@H]1O[C@H](O[C@H]2[C@H](O)[C@@H](O[C@H]3O[C@H](CO)[C@@H](O)[C@H](N)[C@H]3O)[C@H](N)C[C@@H]2N)[C@H](O)[C@@H](O)[C@@H]1O [KANAMYCIN] | > 50 | 0.39 (≈ 0.805 µM) | 3.9 (≈ 8.05 µM) | 3.9 (≈ 8.05 µM) | 1 (≈ 2.06 µM) | > 50 | > 50

From ChEMBL document CHEMBL1144592, “Synthesis and antimicrobial activities of Schiff bases derived from 5-chloro-salicylaldehyde” (2007)
